Like-named read-outs stand apart in the source and are kept apart here.
How the values were obtained:
[1] = test system: CYP3A7; experiment: Expression of CYP3A7 upon cell damage, liver damage by a CYP-inducing drug in humanized CYP3A model mouse; assay type: in vivo; settings: versus corn oil administration control group, hepatocyte regeneration after liver damage
Excerpt: The expression of CYP3A7 during the injury of hepatocytes was examined by a method of liver regeneration after partial hepatectomy performed on 70% living liver, using a humanized CYP3A model mouse into which human CYP3A4 and CYP3A7 have been incorporated, a method of damaging the liver of the same mouse as described above by administration of a CYP-inducing drug, and a method of transplanting frozen human hepatocytes into the liver injury model mouse. In the method of liver regeneration after the partial hepatectomy, mice that were fed after 70% of the liver had been excised by ligating it with a cord were produced. Thereafter, the mice were successively subjected to dissection from Days 1 to 5 to collect the liver from each mouse, and gene expression was then examined. In the method of damaging the liver by administration of a CYP-inducing drug, the liver was excised from each mouse belonging to a PCN administration group and a corn oil administration control group, and gene expression was then examined. In the method of transplanting frozen human hepatocytes into the living mouse, a part of the humanized mouse liver was obtained from PhenixBio, and gene expression was then examined.

[2] = test system: gene expression control region of the human CYP3A7 gene (DsRed reporter)
Method: (§1) Forty-eight hours later (corresponding to Day 14 of differentiation culture), the total area fluorescence intensities of EGFP and DsRed were analyzed under a fluorescence microscope (FIG. 16).

[3] = test system: gene expression control region of the human CYP3A4 gene (EGFP reporter)
Method: as §1

[4] = test system: HepaRG cells
[5] = test system: CYP3A7-DsRed; experiment: Liver injury test using CYP3A4+/7R MAC-introduced mice, analysis by quantitative RT-PCR; assay type: in vivo, mouse; settings: adult mice; 5% carbon tetrachloride; Days 1, 2 and 3 versus non-administered (Day 0)
Method: Using RNAs extracted from the livers of the CYP3A4+/7R MAC-introduced mice to which 5% carbon tetrachloride had been administered in Test Example 11 and non-administered (Day 0) mice, an increase in the expression of DsRed on Days 1, 2 and 3 after the administration was analyzed by quantitative RT-PCR (FIG. 19).

[6] = test system: CYP3A7-DsRed; experiment: Liver injury test using CYP3A4+/7R MAC-introduced mice, observation under fluorescence microscope; assay type: in vivo, mouse; settings: 8 weeks old mice; 5% carbon tetrachloride dissolved in DMSO; observed for 3 days
Excerpt: The CYP3A4+/7MAC-introduced mice produced in Example 5 strongly expressed DsRed for several weeks after the birth. […] In the CYP3A4+/7R MAC-introduced mice, EGFP functions as a marker showing introduction of MAC in the cells.

CC(=O)[C@H]1[C@H](C#N)C[C@H]2[C@@H]3CC=C4C[C@@H](O)CC[C@]4(C)[C@H]3CC[C@@]21C [PCN, pregnenolone 16α-carbonitrile]
expression of CYP3A7 in liver [1]: transiently increased
fluorescence intensity of DsRed ([2]; HepaRG clone C3, drug in 1% DMSO, 48 hours, DMSO control group = 1): increase
expression of EGFP (total area fluorescence intensity) [3]: non-inducibility
cellular damage to HepaRG cells ([4]; HepaRG cells): high cellular damage

ClC(Cl)(Cl)Cl [carbon tetrachloride]
expression of DsRed in the liver (quantitative RT-PCR) [5]: increases
fluorescence intensity of DsRed in the liver [6]: increase

Clc1ccccc1C(c1ccccc1)(c1ccccc1)n1ccnc1 [clotrimazole]
fluorescence intensity of DsRed [2]: increase
expression of EGFP (total area fluorescence intensity) [3]: induced
cellular damage to HepaRG cells [4]: high cellular damage
